The values that follow come from patent US20050202505A1, “Method to identify modulators for human 3alpha-hydroxysteroid dehydrogenase” (priority 2001, published 2005).

Data set [1] has as its target T1, 3a-HSD (Homo sapiens, UniProt P52895).
T1 construct: Full length type III 3a-HSD cDNA is amplified by RT-PCR from human fetal brain total RNA; made in house; host or cells: E. coli BL21 (DE3)
T1 sequence (P52895 1-323): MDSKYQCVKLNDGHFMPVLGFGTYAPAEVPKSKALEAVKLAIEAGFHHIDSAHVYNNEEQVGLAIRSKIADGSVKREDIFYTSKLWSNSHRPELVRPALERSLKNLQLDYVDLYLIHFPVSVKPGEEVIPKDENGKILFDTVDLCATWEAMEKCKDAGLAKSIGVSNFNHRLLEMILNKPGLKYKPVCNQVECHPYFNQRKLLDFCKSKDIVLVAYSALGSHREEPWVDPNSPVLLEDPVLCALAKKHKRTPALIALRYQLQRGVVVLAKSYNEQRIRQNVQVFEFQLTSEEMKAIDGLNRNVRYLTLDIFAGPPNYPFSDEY
The data set can be described thus: NMR ligand binding (line broadening of ligand resonances in the presence of protein). To be noted: ligand resonances in the presence of 3a-HSD. An excerpt:
Binding of natural ligands is a prerequisite for functionality. One method to detect ligand binding by NMR takes advantage of the increased transverse relaxation rates of the ligand protons when the ligand is bound. Increased line widths in the presence of protein thus indicates binding. Binding experiments of NADP to 3a-HSD are done and check by NMR. In the presence of 3a-HSD, the NADP peaks are broadened so much that they are hardly visible in the spectrum.
(§1) Even then, the maximum achievable concentration of allo-pregnanolone is only about 20 μM. […] Based on the NMR analysis, 3a-HSD appears well-folded and functional in respect to cofactor- and ligand-binding.

Data set [2] concerns the target T2, 3a-HSD type III (Homo sapiens, UniProt P52895).
T2 construct: Full length type III 3a-HSD cDNA is amplified by RT-PCR from human fetal brain total RNA; made in house; host or cells: E. coli BL21 (DE3)
T2 sequence (P52895 1-323): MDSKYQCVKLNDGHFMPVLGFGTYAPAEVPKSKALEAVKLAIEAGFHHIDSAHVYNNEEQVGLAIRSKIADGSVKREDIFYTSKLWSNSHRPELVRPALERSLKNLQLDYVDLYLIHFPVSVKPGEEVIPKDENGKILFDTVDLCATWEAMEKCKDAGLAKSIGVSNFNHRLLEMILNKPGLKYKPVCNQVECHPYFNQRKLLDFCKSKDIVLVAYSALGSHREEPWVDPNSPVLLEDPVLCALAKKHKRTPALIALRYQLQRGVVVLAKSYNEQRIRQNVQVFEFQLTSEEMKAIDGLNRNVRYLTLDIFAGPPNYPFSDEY
The data set can be described thus: NMR screening of fragment library. The data set is classed as binding. An excerpt:
NMR spectroscopy can be used to discover and design inhibitors of 3a-HSD type III. This is due to the well-known ability of NMR to detect interactions between ligands and a target protein, even if the interactions are only weak and have affinities in the millimolar range (Diercks, T.; Coles, M.; Kessler, H. Applications of NMR in drug discovery. Curr. Opin. Chem. Biol. 2001, 5, 285-291; Hajduk, P. J.; Meadows, R. P.; Fesik, S. W. NMR-based screening in drug discovery. Q. Rev. Biophys. 1999, 32, 211-240; Pellecchia, M.; Sem, D. S.; Wuthrich, K. NMR in drug discovery. Nature Reviews Drug Discovery 2002, 1, 211-219). For this purpose, a solution of 3a-HSD is added to a mixture of compounds, and NMR properties of the compounds, such as their relaxation rates, are measured and compared in the presence and absence of 3a-HSD. […] This effect can be enhanced by about a factor of 15 if side chains of 3a-HSD are spin-labeled with paramagnetic centers such as TEMPO (2,2,6,6-Tetramethylpiperidin-N-oxyl) or PROXYL (2,2,5,5-Tetramethylpyrrolidine-N-oxyl) (Jahnke, W.; Ruedisser, S.; Zurini, M. Spin Label Enhanced NMR Screening. J. Am. Chem. Soc. 2001, 123, 3149-3150; Jahnke, W. Spin labels as a tool to identify and characterize protein—ligand interactions by NMR spectroscopy. ChemBioChem 2002, 3, 167-173). […]

In data set [3] the target is T3, recombinant type-3 human 3a-HSD (Homo sapiens, UniProt P52895).
T3 construct: Full length type III 3a-HSD cDNA is amplified by RT-PCR from human fetal brain total RNA; made in house; host or cells: E. coli BL21 (DE3)
T3 sequence (P52895 1-323): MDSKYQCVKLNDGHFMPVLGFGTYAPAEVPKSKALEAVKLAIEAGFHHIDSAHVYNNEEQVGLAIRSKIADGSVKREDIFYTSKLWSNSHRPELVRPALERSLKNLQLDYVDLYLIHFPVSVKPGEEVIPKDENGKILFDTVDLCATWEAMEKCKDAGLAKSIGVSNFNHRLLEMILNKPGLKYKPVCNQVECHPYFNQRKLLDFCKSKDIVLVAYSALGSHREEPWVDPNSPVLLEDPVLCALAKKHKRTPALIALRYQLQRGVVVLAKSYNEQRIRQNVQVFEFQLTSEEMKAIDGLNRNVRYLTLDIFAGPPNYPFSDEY
The data set can be described thus: functional in vitro assay, oxidation of 3H-ALLO to 3H-5α-DHP. The data set is classed as biochemical. To be noted: NADP+, pH 7.4, 37° C., read-out: Ki OX. An excerpt: (§2) Materials: Steroid standards (>98% purity) were purchased from Sigma Chemical Co. ^3H-allopregnanolone (64 Ci/mmol, [9, 11, 12-^3H(N)]-allopregnanolone, herein after referred to as ^3H-ALLO) was purchased from New England Nuclear. ^3H-5α-dihydroprogesterone (^3H-5α-DHP) was synthesized in our lab using an enzymatic conversion of ^3H-ALLO to ^3H-5α-DHP by the 3a-HSD (see Enzymatic reactions). The oxidation product ^3H-5α-DHP was isolated and purified by semi-preparative HPLC and confirmed by GC/MS. All solvents were of analytical grade (Merck) and were used without further purification.
(§3) Enzymatic reactions (oxidation of ^3H-ALLO to ^3H-5α-DHP and reduction of ^3H-5α-DHP to ^3H-ALLO): All enzymatic reactions were performed using pure recombinant type-3 human 3a-HSD expressed in E. coli and refolded and purified from bacterial inclusion bodies. ^3H-5a-DHP reduction was conducted in 100 μl reaction systems containing 100 mM sodium phosphate (pH 7.4), 4 μg of recombinant enzyme, 2 mM NADPH and 2.5 μM ^3H-5α-DHP (40 000 cpm) in 4% acetonitrile. Similarly, ^3H-ALLO oxidation was conducted in 100 μl reaction systems containing 100 mM sodium phosphate (pH 7.4), 4 μg of recombinant enzyme, 2 mM NADP^+ and 2.5 μM ^3H-ALLO (40 000 cpm) in 4% acetonitrile. Reactions were initiated by the addition of the respective substrate and were incubated at 37° C. for 25 min. […]

The nature of data set [4]: maximum achievable concentration in aqueous NMR sample with co-solvents. Type of data set: physicochemical. Particulars: water with 2% DMSO-d6 and 5% ethanol as co-solvents. As for the experimental part:
as §1

Substrate in data set [5]: CC(=O)[C@H]1CC[C@H]2[C@@H]3CC[C@H]4C[C@H](O)CC[C@]4(C)[C@H]3CC[C@]12C
The data set can be described thus: functional in vitro assay, oxidation of 3H-ALLO to 3H-5α-DHP. Type of data set: biochemical. To be noted: other: oxidation of ALLO by the type-3 human 3a-HSD; pH 7.4; 37.0 °C.
Text: as §2, §3

`NC(=O)c1ccc[n+]([C@@H]2O[C@H](COP(=O)([O-])OP(=O)(O)OC[C@H]3O[C@@H](n4cnc5c(N)ncnc54)[C@H](OP(=O)(O)O)[C@@H]3O)[C@@H](O)[C@H]2O)c1` [NADP]: the “binding to 3a-HSD detected by NMR line broadening” value in data set [1] is recorded as “proves binding”.
By Ki is commonly meant the equilibrium dissociation constant of an inhibitor or competing ligand from its target. With `CC(=O)c1cc2ccccc2o1` [2-acetylbenzofuran], the “binding to 3a-HSD” value in data set [2] (NMR screening hit) is “only weakly”. Also, the dissociation rate result in data set [2] (observed by NMR, severe line broadening) was “so slow”. The Ki in data set [3] was about 132 µM.
Turning to `CC(=O)[C@H]1CC[C@H]2[C@@H]3CC[C@H]4C[C@H](O)CC[C@]4(C)[C@H]3CC[C@]12C` [allopregnanolone, 3α-hydroxy-5a-pregnan-20-one], in data set [1], the “binding to 3a-HSD detected by NMR line broadening” value is reported as “proven”. In addition, the maximum achievable concentration result in data set [4] is recorded as “about 20 μM”.

B1: recombinant type-3 human 3a-HSD (Homo sapiens) (protein)
chain: MDSKYQCVKLNDGHFMPVLGFGTYAPAEVPKSKALEAVKLAIEAGFHHIDSAHVYNNEEQVGLAIRSKIADGSVKREDIFYTSKLWSNSHRPELVRPALERSLKNLQLDYVDLYLIHFPVSVKPGEEVIPKDENGKILFDTVDLCATWEAMEKCKDAGLAKSIGVSNFNHRLLEMILNKPGLKYKPVCNQVECHPYFNQRKLLDFCKSKDIVLVAYSALGSHREEPWVDPNSPVLLEDPVLCALAKKHKRTPALIALRYQLQRGVVVLAKSYNEQRIRQNVQVFEFQLTSEEMKAIDGLNRNVRYLTLDIFAGPPNYPFSDEY
What is called Km is the substrate concentration at which the rate is half of its maximum. Turning to B1, the Km in data set [5] amounted to 4.9 µM.
